Legend:
[1] = biological target: HLA A*3001 (Homo sapiens, UniProt P04439, D140H/D185E/E176W/F33S/G80R/H175R/K168Q/R138E/R41S); assay: biochemical; assay type: binding
[2] = biological target: HLA A*3201 (Homo sapiens, UniProt P04439, A270S/D101S/D185E/E176V/E277Q/F133L/G103R/G107R/G231S/H175R/I121M/I218V/I322F/K168Q/L105A/L300P/L318F/M331R/P208A/P217A/Q94H/R106L/R138Q/S129P/T104I/T323A/T345S/V100E/V321M/V358M); assay: biochemical; assay type: binding
[3] = biological target: HLA A*6802 (Homo sapiens, UniProt P04439, A269V/D140Y/D185E/E176V/E277Q/E87N/F33Y/G231S/I121R/I166T/I218V/L180W/L300P/L318F/N151K/P208A/P217A/Q86R/R138H/R169H/S129P/T345S/V36M); assay type: binding
[4] = biological target: HLA B*0702 (Homo sapiens, UniProt P01889); assay type: binding; details: positional scanning combinatorial 9-mer library; normalized to 1.0 for the best residue at each position
[5] = biological target: HLA B*0801 (Homo sapiens, UniProt P01889, A93T/A95T/D138N/E176V/E187T/K202T/Q94N/R180D/S35A/V36M/Y33D/Y91F); assay: biochemical; assay type: binding
[6] = biological target: HLA B*1501 (Homo sapiens, UniProt P01889, A329T/A93T/A95T/C349S/D201E/D98Y/E187L/E204Q/E69M/E70A/K202T/N87E/Q94N/R155S/R180W/S121R/S35A/S48A/V306I/V36M/Y140S/Y91S); assay: biochemical; assay type: binding
[7] = biological target: HLA B*1503 (Homo sapiens, UniProt P01889, A329T/A93T/A95T/C349S/D201E/D98Y/E187L/E204Q/K202T/N87E/Q94N/R155S/R180L/S121R/S35A/V306I/V36M/Y140S/Y91S); assay: biochemical; assay type: binding
[8] = biological target: HLA B*2705 (Homo sapiens, UniProt P01889, D138H/D201E/E176V/E204Q/G107R/H137Y/K202T/N104T/N87E/Q56L/Q94K/R106L/R155S/R180L/S101D/S121N/S48T/Y140D/Y33H/Y91C); assay type: binding; details: positional scanning combinatorial 9-mer library; normalized to 1.0 for the best residue at each position
[9] = biological target: HLA B*3501 (Homo sapiens, UniProt P01889, A329T/A93T/A95T/C349S/D201E/D98Y/E176V/E187L/E204Q/E69T/I218V/K202T/L119I/Q94N/R155S/R180L/S121R/S35A/S48A/T118I/V127L/V306I/V36M/Y140S/Y91F); assay type: binding
[10] = biological target: HLA B*5101 (Homo sapiens, UniProt P01889, A329T/A93T/A95T/C349S/D138N/D201E/D98Y/E187L/E204Q/E69T/G107R/I218V/K202T/L105A/L119W/N104I/Q94N/R106L/R155S/R180L/S101N/S121T/S35A/S48A/V306I/V36M/Y195H/Y91F); assay type: binding
[11] = biological target: HLA B*5301 (Homo sapiens, UniProt P01889, A329T/A93T/A95T/C349S/D201E/D98Y/E176V/E187L/E204Q/E69T/G107R/I218V/K202T/L105A/L119I/N104I/Q94N/R106L/R155S/R180L/S101N/S121R/S35A/S48A/T118I/V127L/V306I/V36M/Y140S/Y91F); assay type: binding
[12] = biological target: HLA B*5401 (Homo sapiens, UniProt P01889, A329T/C349S/D138N/D201E/E176V/E187T/E204Q/E69G/I76V/K202T/L119W/R155S/R180L/S121T/S35A/S48A/V127L/V306I/V36M/Y140L); assay type: binding
[13] = biological target: HLA B*5801 (Homo sapiens, UniProt P01889, A329T/C349S/D201E/D98Y/E176V/E187L/E204Q/E69T/G107R/I218V/I90N/K202T/L105A/L119I/N104I/N87E/Q89R/Q94S/R106L/R155S/R180L/R86G/S101N/S121R/S35A/S48A/T118I/V127L/V306I/V36M/Y140S/Y91M); assay type: binding
[14] = biological target: HLA B*5802 (Homo sapiens, UniProt P01889, A329T/C349S/D201E/D98Y/E176V/E187L/E204Q/E69T/G107R/I218V/I90N/K202T/L105A/N104I/N87E/Q89R/Q94S/R106L/R155S/R180L/R86G/S101N/S121W/S35A/S48A/V127L/V306I/V36M/Y140S/Y91M); assay type: binding
[15] = biological target: H-2 D^b (Mus musculus, UniProt P01899); assay type: binding
H-2 D^b, sequence (P01887 21-119): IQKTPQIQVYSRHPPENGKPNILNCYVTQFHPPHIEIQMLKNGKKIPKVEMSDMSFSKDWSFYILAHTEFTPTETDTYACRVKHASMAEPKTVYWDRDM
H-2 D^b, sequence (P01899 25-362): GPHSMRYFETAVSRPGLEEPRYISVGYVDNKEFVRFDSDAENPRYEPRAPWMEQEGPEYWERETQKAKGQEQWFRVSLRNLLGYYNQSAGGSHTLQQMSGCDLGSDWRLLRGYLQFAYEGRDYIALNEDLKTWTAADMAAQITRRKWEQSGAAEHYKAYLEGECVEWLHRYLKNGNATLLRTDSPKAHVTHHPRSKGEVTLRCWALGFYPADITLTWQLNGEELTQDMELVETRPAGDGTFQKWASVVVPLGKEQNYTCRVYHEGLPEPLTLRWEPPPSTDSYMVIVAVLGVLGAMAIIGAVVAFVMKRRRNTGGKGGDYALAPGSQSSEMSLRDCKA

[16] = biological target: H-2 D^d (Mus musculus, UniProt P01900); assay type: binding
H-2 D^d, sequence (P01900 whole entry, looked up): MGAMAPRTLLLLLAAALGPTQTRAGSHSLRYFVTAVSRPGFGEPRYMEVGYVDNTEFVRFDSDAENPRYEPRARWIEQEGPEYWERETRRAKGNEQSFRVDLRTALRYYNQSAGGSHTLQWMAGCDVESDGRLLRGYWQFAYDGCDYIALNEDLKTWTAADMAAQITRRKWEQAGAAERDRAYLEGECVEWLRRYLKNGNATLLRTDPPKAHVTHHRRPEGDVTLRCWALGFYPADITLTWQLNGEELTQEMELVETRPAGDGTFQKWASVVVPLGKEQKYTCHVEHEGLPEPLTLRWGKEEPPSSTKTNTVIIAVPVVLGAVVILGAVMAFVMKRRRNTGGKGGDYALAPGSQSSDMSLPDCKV

[17] = biological target: H-2 K^k (Mus musculus, UniProt P04223); assay type: binding
H-2 K^k, sequence (P01887 21-119): as the sequence (P01887 21-119) above
H-2 K^k, sequence (P04223 22-369): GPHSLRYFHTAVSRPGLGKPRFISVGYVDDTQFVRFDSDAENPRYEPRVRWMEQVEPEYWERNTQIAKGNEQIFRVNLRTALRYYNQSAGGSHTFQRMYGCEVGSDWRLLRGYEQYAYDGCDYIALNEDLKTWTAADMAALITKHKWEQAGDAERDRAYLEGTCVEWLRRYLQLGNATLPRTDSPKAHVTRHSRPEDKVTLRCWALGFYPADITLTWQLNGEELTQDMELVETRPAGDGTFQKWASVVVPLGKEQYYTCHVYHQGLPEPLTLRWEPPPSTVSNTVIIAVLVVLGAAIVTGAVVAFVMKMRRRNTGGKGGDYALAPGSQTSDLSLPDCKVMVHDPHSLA

[18] = biological target: HLA A*0201 (Homo sapiens, UniProt P04439, D140Y/D185E/D98H/E176V/E277Q/G131W/G231S/I119V/I121R/I166T/I218V/L300P/L318F/N151K/N90K/P208A/P217A/Q86G/Q94H/R138H/R169H/T345S); details: positional scanning combinatorial 9-mer library; normalized to 1.0 for the best residue at each position

| Sequence | Normalized average relative binding affinity (ARB), HLA A*3001 [1] | Normalized average relative binding affinity (ARB), HLA A*3201 [2] | Normalized average relative binding affinity (ARB), HLA A*6802 [3] | Normalized average relative binding affinity (ARB), HLA B*0702 [4] | Normalized average relative binding affinity (ARB), HLA B*0801 [5] | Normalized average relative binding affinity (ARB), HLA B*1501 [6] | Normalized average relative binding affinity (ARB), HLA B*1503 [7] | Normalized average relative binding affinity (ARB), HLA B*2705 [8] | Normalized average relative binding affinity (ARB), HLA B*3501 [9] | Normalized average relative binding affinity (ARB), HLA B*5101 [10] | Normalized average relative binding affinity (ARB), HLA B*5301 [11] | Normalized average relative binding affinity (ARB), HLA B*5401 [12] | Normalized average relative binding affinity (ARB), HLA B*5801 [13] | Normalized average relative binding affinity (ARB), HLA B*5802 [14] | Normalized average relative binding affinity (ARB), H-2 Db [15] | Normalized average relative binding affinity (ARB), H-2 Dd [16] | Normalized average relative binding affinity (ARB), H-2 Kk [17] | Normalized average relative binding affinity (ARB), HLA A*0201 [18] |
| --- | --- | --- | --- | --- | --- | --- | --- | --- | --- | --- | --- | --- | --- | --- | --- | --- | --- | --- |
| AXXXXXXXX [3064.0001] | 0.18 | 0.36 | 0.031 | 0.78 | 0.11 | 0.31 | 0.47 | 0.35 | 0.042 | 0.071 | 0.0057 | 0.014 | 0.33 | 0.065 | 0.14 | 0.20 | 0.18 | 0.11 |
| CXXXXXXXX [3064.0002] | 0.097 | 0.11 | 0.13 | 0.19 | 0.16 | 0.19 | 0.20 | 0.11 | 0.19 | 0.19 | 0.061 | 0.027 | 0.18 | 0.048 | 0.16 | 0.26 | 0.51 | 0.032 |
| DXXXXXXXX [3064.0003] | 0.0069 | 0.031 | 0.21 | 0.021 | 0.13 | 0.042 | 0.016 | 0.022 | 0.11 | 0.27 | 0.028 | 0.050 | 0.013 | 0.068 | 0.033 | 0.059 | 0.43 | 0.0078 |
| EXXXXXXXX [3064.0004] | 0.018 | 0.12 | 1.0 | 0.069 | 0.36 | 0.16 | 0.090 | 0.089 | 0.085 | 0.10 | 0.021 | 0.040 | 0.032 | 0.066 | 0.030 | 0.16 | 0.77 | 0.015 |
